Patent US20170050962A1, “IMIDAZO[1,2-A]PYRIDINES AS STIMULATORS OF SOLUBLE GUANYLATE CYCLASE FOR TREATING CARDIOVASCULAR DISEASES” (BAYER PHARMA AKTIENGESELLSCHAFT, priority 2014, published 2017)

Each compound was assayed on recombinant guanylate cyclase reporter cell line (assay: Effect on a recombinant guanylate cyclase reporter cell line). Details: in some cases mean values for individual determinations.
Assay type: cell-based
Experimental: B-2. Effect on a Recombinant Guanylate Cyclase Reporter Cell Line
The cellular activity of the compounds according to the invention is determined using a recombinant guanylate cyclase reporter cell line, as described in F. Wunder et al., Anal. Biochem. 339, 104-112 (2005).
Representative MEC values (MEC=minimum effective concentration) for the compounds of the invention are shown in the table below (in some cases as mean values for individual determinations): […]

SMILES	MEC (minimum effective concentration) [µM]
Cc1cc(OCc2c(F)cccc2F)c2nc(C)c(C3=CC(=NO)CC(C)(C)N3)n2c1 (stereo in doubt) [Example 5, (4E)-6-{8-[(2,6-Difluorobenzyl)oxy]-2,6-dimethylimidazo[1,2-a]pyridin-3-yl}-N-hydroxy-2,2-dimethyl-2,3-dihydropyridine-4(1H)-imine]	0.03
Cc1cc(OCc2c(F)cccc2F)c2nc(C)c(-c3ccc(=O)n(CC(C)(C)N)c3)n2c1 [Example 1, 1-(2-Amino-2-methylpropyl)-5-{8-[(2,6-difluorobenzyl)oxy]-2,6-dimethylimidazo[1,2-a]pyridin-3-yl}pyridin-2(1H)-one]	1.0
Cc1cc(OCc2c(F)cccc2F)c2nc(C)c(-c3ccc(OCC(C)(C)N)nc3)n2c1 [Example 2, 1-[(5-{8-[(2,6-Difluorobenzyl)oxy]-2,6-dimethylimidazo[1,2-a]pyridin-3-yl}pyridin-2-yl)oxy]-2-methylpropan-2-amine]	0.3
Cc1cc(OCc2c(F)cccc2F)c2nc(C)c(-c3ccn(CC(C)(C)N)c(=O)c3)n2c1 [Example 3, 1-(2-Amino-2-methylpropyl)-4-{8-[(2,6-difluorobenzyl)oxy]-2,6-dimethylimidazo[1,2-a]pyridin-3-yl}pyridin-2(1H)-one]	1.0
Cc1cc(OCc2c(F)cccc2F)c2nc(C)c(-c3ccnc(OCC(C)(C)N)c3)n2c1 [Example 4, 1-[(4-{8-[(2,6-Difluorobenzyl)oxy]-2,6-dimethylimidazo[1,2-a]pyridin-3-yl}pyridin-2-yl)oxy]-2-methylpropan-2-amine]	0.03
Cc1cc(OCc2c(F)cccc2F)c2nc(C)c(-c3nc(OCC(C)(C)N)n[nH]3)n2c1 [Example 6, 1-[(5-{8-[(2,6-Difluorobenzyl)oxy]-2,6-dimethylimidazo[1,2-a]pyridin-3-yl}-1H-1,2,4-triazol-3-yl)oxy]-2-methylpropan-2-amine]	3.0
Cc1cc(OCc2c(F)cccc2F)c2nc(C)c(-c3cc[nH]c(=O)c3)n2c1 [Example 8, 4-{8-[(2,6-Difluorobenzyl)oxy]-2,6-dimethylimidazo[1,2-a]pyridin-3-yl}pyridin-2(1H)-one]	1.0
